This passage reports EC50, CC50 and selectivity ratio results from ChEMBL document CHEMBL4813984, “An original pronucleotide strategy for the simultaneous delivery of two bioactive drugs” (Eur J Med Chem, 2021).

Data set [1] relates to Human immunodeficiency virus 1. Nature of the data set: Antiviral activity against HIV-1 infected in human CEM-SS cells assessed as reduction in viral multiplication by measuring decrease in reverse transcriptase activity incubated for 5 days. The class given is functional, organism-based. The following applies: Human immunodeficiency virus 1, CEM-SS, 120 h.
Data set [2] deals with Human immunodeficiency virus 1. The data set can be described thus: Antiviral activity against HIV-1 infected in human MT4 cells assessed as reduction in virus-indued cytopathogenicity incubated for 5 days by MTT assay. The class given is functional, organism-based. The following applies: Human immunodeficiency virus 1, MT4, 120 h. On the technique in general: Damage to the host cells serves as the signal in cytopathic effect assays.

Data set [3] is described as follows: Cytotoxicity against human CEM-SS cells assessed as reduction in cell viability incubated for 5 days by MTT assay. The data set is classed as cell-based. The settings on record: time 5 day. A general note: Formazan colour is commonly taken as a measure of viable cells.
Data set [4] is described as follows: Cytotoxicity against human MT4 cells assessed as reduction in cell viability incubated for 5 days by MTT assay. The settings on record: time 5 day. The data set is classed as cell-based.
Data set [5] is described as follows: Selectivity index, ratio of CC50 for human MT4 cells to EC50 for antiviral activity against HIV-1 infected in human MT4 cells. The data set is classed as toxicity, cell-based. The settings on record: read-out: Ratio CC50/EC50.
Data set [6] is described as follows: Selectivity index, ratio of CC50 for human CEM-SS cells to EC50 for antiviral activity against HIV-1 infected in human CEM-SS cells. The data set is classed as toxicity, cell-based. The following applies: read-out: Ratio CC50/EC50.
The nature of data set [7]: Cytotoxicity against human CEM-TK(-) cells assessed as reduction in cell viability incubated for 5 days by MTT assay. The class given is cell-based. The following applies: time 5 day.
Data set [8] concerns Human immunodeficiency virus 1. The data set can be described thus: Antiviral activity against HIV-1 infected in human CEM-TK(-) cells assessed as reduction in viral multiplication by measuring decrease in reverse transcriptase activity incubated for 6 days. The class given is functional, organism-based. The settings on record: Human immunodeficiency virus 1, CEM-TK(-), 144 h.

Data set [9] is described as follows: Selectivity index, ratio of CC50 for human MT4 cells to EC50 for antiviral activity against HIV-1 infected in human MT4 cells in presence of ddA. The class given is toxicity, cell-based. The settings on record: read-out: Ratio CC50/EC50.
For data set [10], the system named is Human immunodeficiency virus 1. Nature of the data set: Antiviral activity against HIV-1 infected in human CEM-TK(-) cells assessed as reduction in viral multiplication by measuring decrease in reverse transcriptase activity incubated for 6 days in presence of AZT. The settings on record: Human immunodeficiency virus 1, CEM-TK(-), 144 h. The class given is functional, organism-based.

Data set [11] has as its system Human immunodeficiency virus 1. The data set can be described thus: Antiviral activity against HIV-1 infected in human MT4 cells assessed as reduction in virus-indued cytopathogenicity incubated for 5 days in presence of ddA by MTT assay. The settings on record: Human immunodeficiency virus 1, MT4, 120 h. The data set is classed as functional, organism-based.
The nature of data set [12]: Selectivity index, ratio of CC50 for human CEM-SS cells to EC50 for antiviral activity against HIV-1 infected in human CEM-SS cells in presence of AZT. The data set is classed as toxicity, cell-based. The following applies: read-out: Ratio CC50/EC50.
Data set [13] relates to Human immunodeficiency virus 1. Nature of the data set: Antiviral activity against HIV-1 infected in human CEM-SS cells assessed as reduction in viral multiplication by measuring decrease in reverse transcriptase activity incubated for 5 days in presence of ddA. The class given is functional, organism-based. The settings on record: Human immunodeficiency virus 1, CEM-SS, 120 h.

A short description of data set [14]: Cytotoxicity against human CEM-SS cells assessed as reduction in cell viability incubated for 5 days in presence of ddA by MTT assay. The data set is classed as cell-based. The settings on record: time 5 day.
A short description of data set [15]: Selectivity index, ratio of CC50 for human CEM-SS cells to EC50 for antiviral activity against HIV-1 infected in human CEM-SS cells in presence of ddA. The data set is classed as toxicity, cell-based. The following applies: read-out: Ratio CC50/EC50.
Data set [16] is described as follows: Selectivity index, ratio of CC50 for human MT4 cells to EC50 for antiviral activity against HIV-1 infected in human MT4 cells in presence of AZT. The class given is toxicity, cell-based. The settings on record: read-out: Ratio CC50/EC50.
A short description of data set [17]: Selectivity index, ratio of CC50 for human CEM-TK(-) cells to EC50 for antiviral activity against HIV-1 infected in human CEM-TK(-) cells. The class given is toxicity, cell-based. The settings on record: read-out: Ratio CC50/EC50.
For data set [18], the system named is Human immunodeficiency virus 1. The data set can be described thus: Antiviral activity against HIV-1 infected in human MT4 cells assessed as reduction in virus-indued cytopathogenicity incubated for 5 days in presence of AZT by MTT assay. The class given is functional, organism-based. The settings on record: Human immunodeficiency virus 1, MT4, 120 h.
The nature of data set [19]: Cytotoxicity against human MT4 cells assessed as reduction in cell viability incubated for 5 days in presence of AZT by MTT assay. The data set is classed as cell-based. The settings on record: time 5 day.
Data set [20] is described as follows: Selectivity index, ratio of CC50 for human CEM-TK(-) cells to EC50 for antiviral activity against HIV-1 infected in human CEM-TK(-) cells in presence of AZT. The settings on record: read-out: Ratio CC50/EC50. The data set is classed as toxicity, cell-based.
Data set [21] concerns Human immunodeficiency virus 1. The data set can be described thus: Antiviral activity against HIV-1 infected in human CEM-SS cells assessed as reduction in viral multiplication by measuring decrease in reverse transcriptase activity incubated for 5 days in presence of AZT. The data set is classed as functional, organism-based. The following applies: Human immunodeficiency virus 1, CEM-SS, 120 h.

Data set [22] is described as follows: Cytotoxicity against human CEM-SS cells assessed as reduction in cell viability incubated for 5 days in presence of AZT by MTT assay. The data set is classed as cell-based. The settings on record: time 5 day.
A short description of data set [23]: Cytotoxicity against human MT4 cells assessed as reduction in cell viability incubated for 5 days in presence of ddA by MTT assay. The class given is cell-based. The following applies: time 5 day.
Data set [24] is described as follows: Cytotoxicity against human CEM-TK(-) cells assessed as reduction in cell viability incubated for 5 days in presence of AZT by MTT assay. The data set is classed as cell-based. The settings on record: time 5 day.

The EC50 is the concentration at which the effect is half-maximal. What is called CC50 is the concentration that lowers cell viability or growth by half. Turning to `Nc1ncnc2c1ncn2[C@H]1CC[C@@H](CO)O1`, the EC50 was 2 µM in [1] and 9 µM in data set [2]. Further, the CC50 at 120 h in [3] and in data set [4] was above 110 µM throughout. In addition, the selectivity ratio was above 12 in [5] and above 55 in data set [6].
Take `Cc1cn([C@H]2C[C@H](N=[N+]=[N-])[C@@H](CO)O2)c(=O)[nH]c1=O` [ZIDOVUDINE]: the EC50 in data set [1] was 0.024 µM; in [8], above 100 µM. Also, the CC50 at 120 h in data set [7] is above 1000 µM; in data set [3] it was above 1000 µM; in [4] it was 140 µM. The selectivity ratio in [5] was 8240; in [6], above 40000.
`Nc1ccn([C@H]2CC[C@@H](CO)O2)c(=O)n1` [ZALCITABINE]: the EC50 in [1] came to 0.067 µM; in data set [10], 0.009 µM; in data set [11] it was 1.2 µM; in data set [13] it was 0.01 µM; in data set [2], 2 µM; in data set [18], 0.083 µM. Further, the EC50 in data set [8] is 0.015 µM; in data set [21], 0.016 µM. Also, the selectivity ratio in [9] is above 83; in data set [12] it was 2880; in data set [15], 4600; in data set [16] it was 15700; in data set [17], 467; in data set [20], 922. Besides, the values for the selectivity ratio in [5] and in data set [6] were 90 and 239, respectively. In addition, the CC50 at 120 h was 7 µM in data set [7]; 46 µM in data set [14]; 16 µM in data set [3]; 130 µM in [19]; 180 µM in data set [4]; 46 µM in data set [22]. Besides, the figures for the CC50 at 120 h in [23] and in data set [24] were above 100 µM and 8.3 µM, respectively.
